Results as given in PubChem BioAssay AID2060489 (Molecular Pharmacology Branch, DTP, NCI, 2025).

Tested on: 922993-354-T-J3-PDC complex spheroids, viability
Test: Anticancer human tumor 922993-354-T-J3-PDC patient-derived endometrial carcinoma cell line growth inhibition [GQUAD]
Details: for IC50: curve of first compound; for viability, T/C: stronger effect = lower value
Text: DNA G-quadruplex Stabilizer Agents in Combinations in Complex Spheroids
A high-throughput screen of multi-cell type tumor spheroids was designed to identify active combinations of DNA G-quadruplex stabilizer agents and targeted small molecules. Complex spheroids include a stromal component modeled by human endothelial cells (HUVEC) and fibroblasts modeled by human mesenchymal stem cells (MSCs). The concentration ranges selected for each drug and investigational agent were based upon clinically achievable concentrations if the clinical Cmax of the agent was known.
Compounds. The drugs and investigational agents: pidnarulex (CX-5461; NSC782164), APTO-253 (NSC789042), BRACO-19 (NSC847499), peposertib (NSC802822), ceralasertib (NSC780249), elimusertib (NSC800525), camonsertib (NSC841442), AZD-1390 (NSC803789), olaparib (NSC753686), talazoparib (NSC767125), ART-558 (NSC835418), sotorasib (NSC818433), MRTX-1133 (NSC836407), SN-38 (NSC673596), topotecan (NSC609699), etoposide (NSC141540), doxorubicin (NSC123127), gemcitabine (NSC613327), 5-fluorouracil (NSC19893), paclitaxel (NSC125973), vemurafenib (NSC761431), panobinostat (NSC761190), R-306465 (JNJ-16241199; NSC773264), adavosertib (NSC754352), TP-3654 (NSC805149), carboplatin (NSC241240), KSQ-4279 (NSC840948), and staurosporine (NSC755774) were obtained from the National Cancer Institute (NCI) Developmental Therapeutics Program Chemical Repository (34). The FDA-approved anticancer drug set is available from the NCI Developmental Therapeutics Program. […] The stock solutions were prepared in dimethyl sulfoxide (DMSO, Sigma-Aldrich, St. Louis, MO, cat. D2650) at 800-fold the tested concentration and stored at -70 degrees C prior to their use. All drugs and investigational agents were tested over a range starting from a high concentration at or near the clinical Cmax and decreasing in half-log increments. If the clinical Cmax for an agent had not been determined, the highest concentration tested was 10 microM.
2.3 Cell Culture. All cells were maintained in an incubator at 37 degrees C and 5% CO2 with 95% humidity. The PDC lines were cultured according to standard operating procedures established by the NCI PDMR. All PDCs were thawed and cultured in Matrigel-coated flasks prepared with a working solution of 1X Ham's F-12 nutrient mix, without supplementation (Invitrogen, cat. 11765054), 100 U/mL penicillin-streptomycin (Invitrogen, cat. 15140122), and 2.5% Matrigel (Corning Inc., cat. 354248) for the first three passages. The 857933-349-R-J2-PDC line was cultured in 6C/Colon 1B media, which includes advanced DMEM/F-12 (Thermo Fisher Scientific, cat. 12634028), 10 mM HEPES (Thermo Fisher Scientific, cat. 15630080), 1X GlutaMAX supplement (Thermo Fisher Scientific, cat. 35050061), 0.1 mg/mL primocin (InvivoGen, cat. ant-pm-2), 10% defined fetal bovine serum, heat inactivated (HyClone Laboratories Inc., cat. SH30070.03HI), 50% L-WRN conditioned media (ATCC, cat. CRL-3276), 1.25 mM N-Acetyl-L-cysteine (Sigma-Aldrich, cat. A9165), 10 mM nicotinamide (Sigma-Aldrich, cat. N0636), 1X B-27 supplement (Thermo Fisher Scientific, cat. 17504044), 1X N-2 supplement (Thermo Fisher Scientific, cat. 17502048), 10 microM Y-27632 dihydrochloride (Tocris Bioscience, cat. 1254), and 50 ng/mL human EGF recombinant protein (Thermo Fisher Scientific, cat. PHG0311). The 485176-168-R4-J1-PDC line was cultured in Panc media, which includes all 6C/Colon 1B media components plus 100 ng/mL human FGF-10 (Thermo Fisher Scientific, cat. 100-26), 500 nM SB-431542 (Selleckchem, cat. S1067), and gastrin (Tocris, cat. 3006).
[…]

[1] = second compound 0.0316 µM, first compound 0.0316 µM
[2] = second compound 0.0316 µM, first compound 0.316 µM
[3] = second compound 0.1 µM, first compound 0.0316 µM
[4] = second compound 0.1 µM, first compound 0.316 µM
[5] = second compound 0.316 µM, first compound 0.0316 µM
[6] = second compound 0.316 µM, first compound 0.316 µM
[7] = second compound 1 µM, first compound 0.0316 µM
[8] = second compound 1 µM, first compound 0.316 µM
[9] = second compound 3.16 µM, first compound 0.0316 µM
[10] = second compound 3.16 µM, first compound 0.316 µM
[11] = second compound 10 µM, first compound 0.0316 µM
[12] = second compound 10 µM, first compound 0.316 µM
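Also: spheroids exposed to compounds for seven days.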
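For viability, T/C in this document: 100% = DMSO vehicle control viability.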

## C=CC(=O)N1CCN(c2nc(=O)n(-c3c(C)ccnc3C(C)C)c3nc(-c4c(O)cccc4F)c(F)cc23)C(C)C1 (centres undefined) + CN(C)c1ccc(Nc2c3ccc(NC(=O)CCN4CCCC4)cc3nc3cc(NC(=O)CCN4CCCC4)ccc23)cc1
Second compound 0.0316 µM
  IC50: > 10000 nM
Second compound 0.1 µM
  IC50: > 10000 nM
Second compound 0.316 µM
  IC50: > 10000 nM
Second compound 1 µM
  IC50: > 10000 nM
Second compound 3.16 µM
  IC50: > 10000 nM
Second compound 10 µM
  IC50: > 10000 nM
[1]
  viability, T/C: 96.9%
Second compound 0.0316 µM, first compound 0.1 µM
  viability, T/C: 84.8%
[2]
  viability, T/C: 102%
Second compound 0.0316 µM, first compound 1 µM
  viability, T/C: 104%
Second compound 0.0316 µM, first compound 3.16 µM
  viability, T/C: 97%
Second compound 0.0316 µM, first compound 10 µM
  viability, T/C: 119%
[3]
  viability, T/C: 109%
Second compound 0.1 µM, first compound 0.1 µM
  viability, T/C: 109%
[4]
  viability, T/C: 112%
Second compound 0.1 µM, first compound 1 µM
  viability, T/C: 94.5%
Second compound 0.1 µM, first compound 3.16 µM
  viability, T/C: 128%
Second compound 0.1 µM, first compound 10 µM
  viability, T/C: 109%
[5]
  viability, T/C: 112%
Second compound 0.316 µM, first compound 0.1 µM
  viability, T/C: 120%
[6]
  viability, T/C: 96.7%
Second compound 0.316 µM, first compound 1 µM
  viability, T/C: 128%
Second compound 0.316 µM, first compound 3.16 µM
  viability, T/C: 103%
Second compound 0.316 µM, first compound 10 µM
  viability, T/C: 104%
[7]
  viability, T/C: 111%
Second compound 1 µM, first compound 0.1 µM
  viability, T/C: 118%
[8]
  viability, T/C: 99.6%
Second compound 1 µM, first compound 1 µM
  viability, T/C: 125%
Second compound 1 µM, first compound 3.16 µM
  viability, T/C: 117%
Second compound 1 µM, first compound 10 µM
  viability, T/C: 120%
[9]
  viability, T/C: 107%
Second compound 3.16 µM, first compound 0.1 µM
  viability, T/C: 128%
[10]
  viability, T/C: 107%
Second compound 3.16 µM, first compound 1 µM
  viability, T/C: 139%
Second compound 3.16 µM, first compound 3.16 µM
  viability, T/C: 137%
Second compound 3.16 µM, first compound 10 µM
  viability, T/C: 117%
[11]
  viability, T/C: 115%
Second compound 10 µM, first compound 0.1 µM
  viability, T/C: 140%
[12]
  viability, T/C: 142%
Second compound 10 µM, first compound 1 µM
  viability, T/C: 137%
Second compound 10 µM, first compound 3.16 µM
  viability, T/C: 153%
Second compound 10 µM, first compound 10 µM
  viability, T/C: 142%

## CC[C@@]1(O)C(=O)OCc2c1cc1n(c2=O)Cc2cc3c(CN(C)C)c(O)ccc3nc2-1 + CN(C)c1ccc(Nc2c3ccc(NC(=O)CCN4CCCC4)cc3nc3cc(NC(=O)CCN4CCCC4)ccc23)cc1
Second compound 0.0316 µM
  IC50: 279 nM
Second compound 0.1 µM
  IC50: > 316 nM
Second compound 0.316 µM
  IC50: 286 nM
Second compound 1 µM
  IC50: 265 nM
Second compound 3.16 µM
  IC50: 302 nM
Second compound 10 µM
  IC50: > 316 nM
Second compound 0.0316 µM, first compound 0.000999 µM
  viability, T/C: 100%
Second compound 0.0316 µM, first compound 0.00316 µM
  viability, T/C: 74.3%
Second compound 0.0316 µM, first compound 0.00999 µM
  viability, T/C: 99.8%
[1]
  viability, T/C: 91.9%
Second compound 0.0316 µM, first compound 0.0999 µM
  viability, T/C: 77.3%
[2]
  viability, T/C: 46.6%
Second compound 0.1 µM, first compound 0.000999 µM
  viability, T/C: 120%
Second compound 0.1 µM, first compound 0.00316 µM
  viability, T/C: 110%
Second compound 0.1 µM, first compound 0.00999 µM
  viability, T/C: 89.3%
[3]
  viability, T/C: 82.7%
Second compound 0.1 µM, first compound 0.0999 µM
  viability, T/C: 88.9%
[4]
  viability, T/C: 43.4%
Second compound 0.316 µM, first compound 0.000999 µM
  viability, T/C: 90.5%
Second compound 0.316 µM, first compound 0.00316 µM
  viability, T/C: 98.4%
Second compound 0.316 µM, first compound 0.00999 µM
  viability, T/C: 79.2%
[5]
  viability, T/C: 84%
Second compound 0.316 µM, first compound 0.0999 µM
  viability, T/C: 92.5%
[6]
  viability, T/C: 46.2%
Second compound 1 µM, first compound 0.000999 µM
  viability, T/C: 100%
Second compound 1 µM, first compound 0.00316 µM
  viability, T/C: 106%
Second compound 1 µM, first compound 0.00999 µM
  viability, T/C: 97.7%
[7]
  viability, T/C: 94.5%
Second compound 1 µM, first compound 0.0999 µM
  viability, T/C: 76.8%
[8]
  viability, T/C: 45.1%
Second compound 3.16 µM, first compound 0.000999 µM
  viability, T/C: 101%
Second compound 3.16 µM, first compound 0.00316 µM
  viability, T/C: 109%
Second compound 3.16 µM, first compound 0.00999 µM
  viability, T/C: 99.6%
[9]
  viability, T/C: 117%
Second compound 3.16 µM, first compound 0.0999 µM
  viability, T/C: 115%
[10]
  viability, T/C: 47.6%
Second compound 10 µM, first compound 0.000999 µM
  viability, T/C: 109%
Second compound 10 µM, first compound 0.00316 µM
  viability, T/C: 115%
Second compound 10 µM, first compound 0.00999 µM
  viability, T/C: 110%
[11]
  viability, T/C: 97.3%
Second compound 10 µM, first compound 0.0999 µM
  viability, T/C: 115%
[12]
  viability, T/C: 59.4%
